Results reported in ChEMBL document CHEMBL1201862, “PubChem BioAssay data set” (2004).
Active and inactive are the calls of the source. Cut-off read from the data, not from the text of the source, for most assays here: actives have a measured EC50 and inactives only a lower limit.

How the values were obtained:
[1] = target: T1, Heat shock factor protein 1 (Mus musculus, UniProt P38532); assay: decrease of HSF1-responsive luciferase luminescence – cell-based, NIH3T3, dose retest, confirmation (AID 2382); assay type: functional;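 note: NIH3T3 fibroblasts with HSF1-driven luciferase reporter stressed by proteasome inhibitor MG132; luminescence from HSF1-driven luciferase expression after 8 hours of MG132 stress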
T1 sequence (P38532 whole entry): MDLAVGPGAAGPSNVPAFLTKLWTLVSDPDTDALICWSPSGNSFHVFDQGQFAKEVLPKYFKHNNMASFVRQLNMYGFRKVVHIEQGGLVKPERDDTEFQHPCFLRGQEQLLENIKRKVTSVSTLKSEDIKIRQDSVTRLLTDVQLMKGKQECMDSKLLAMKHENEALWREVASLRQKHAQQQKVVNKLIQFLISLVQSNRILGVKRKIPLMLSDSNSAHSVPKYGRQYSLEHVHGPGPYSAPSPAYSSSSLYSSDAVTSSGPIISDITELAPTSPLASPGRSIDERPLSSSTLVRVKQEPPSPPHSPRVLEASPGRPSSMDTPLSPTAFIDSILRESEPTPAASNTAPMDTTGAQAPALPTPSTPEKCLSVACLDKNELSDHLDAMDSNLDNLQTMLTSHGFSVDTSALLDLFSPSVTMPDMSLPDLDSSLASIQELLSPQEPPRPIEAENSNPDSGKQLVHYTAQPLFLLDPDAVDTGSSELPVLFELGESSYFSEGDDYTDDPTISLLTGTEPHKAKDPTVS

[2] = luciferase reporter signal suppression in cells – H4 neuroglioma cells, luminescence, dose response (AID 1990); assay type: functional, cell-based
[3] = alpha-synuclein stem-loop luciferase translation blockers – H4 neuroglioma cells, luminescence, confirmation (AID 1988); assay type: functional, cell-based
[4] = Luminescence Cell-Based Dose Response HTS to Identify Inhibitors of 5'UTR Stem-Loop Driven Prion Protein mRNA Translation in H4 Neuroglioblastoma Cells. [Related pubchem assays: 1827 (Project Summary), 1813 (Primary HTS)]; assay type: functional
[5] = Luminescence Cell-Based Dose Retest to Confirm Inhibitors of Cancer Stem Cells. [Related pubchem assays (depositor defined):AID2717, AID2721]; assay type: functional; details: Homo sapiens
[6] = target: Cytochrome P450 2C9 (Homo sapiens, UniProt P11712)
[7] = target: T2, Rac GTPase-activating protein 1 (Homo sapiens, UniProt Q9H0H5); assay: blockers of MgcRacGAP-driven Rac1 GTP hydrolysis – biochemical, ADP Hunter fluorescence, primary and confirmatory, confirmation (AID 624330); assay type: functional
T2 sequence (Q9H0H5 whole entry): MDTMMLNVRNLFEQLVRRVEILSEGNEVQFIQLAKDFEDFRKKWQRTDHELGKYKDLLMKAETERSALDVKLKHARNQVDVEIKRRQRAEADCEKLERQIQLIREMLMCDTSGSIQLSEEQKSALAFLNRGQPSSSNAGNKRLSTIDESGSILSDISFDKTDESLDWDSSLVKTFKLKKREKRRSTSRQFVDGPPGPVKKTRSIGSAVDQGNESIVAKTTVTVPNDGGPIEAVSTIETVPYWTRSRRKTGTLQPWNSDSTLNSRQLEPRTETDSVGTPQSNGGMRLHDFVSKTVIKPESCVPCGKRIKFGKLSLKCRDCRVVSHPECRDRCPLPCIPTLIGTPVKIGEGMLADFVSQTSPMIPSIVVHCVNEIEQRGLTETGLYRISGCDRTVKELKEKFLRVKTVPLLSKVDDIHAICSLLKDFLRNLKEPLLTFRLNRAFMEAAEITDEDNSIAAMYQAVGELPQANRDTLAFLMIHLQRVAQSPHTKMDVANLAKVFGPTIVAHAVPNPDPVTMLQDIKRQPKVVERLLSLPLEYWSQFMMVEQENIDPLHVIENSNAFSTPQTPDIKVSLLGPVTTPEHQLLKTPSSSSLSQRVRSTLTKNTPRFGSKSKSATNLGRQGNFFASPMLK

Chain of Cytochrome P450 2C9 (P11712 whole entry): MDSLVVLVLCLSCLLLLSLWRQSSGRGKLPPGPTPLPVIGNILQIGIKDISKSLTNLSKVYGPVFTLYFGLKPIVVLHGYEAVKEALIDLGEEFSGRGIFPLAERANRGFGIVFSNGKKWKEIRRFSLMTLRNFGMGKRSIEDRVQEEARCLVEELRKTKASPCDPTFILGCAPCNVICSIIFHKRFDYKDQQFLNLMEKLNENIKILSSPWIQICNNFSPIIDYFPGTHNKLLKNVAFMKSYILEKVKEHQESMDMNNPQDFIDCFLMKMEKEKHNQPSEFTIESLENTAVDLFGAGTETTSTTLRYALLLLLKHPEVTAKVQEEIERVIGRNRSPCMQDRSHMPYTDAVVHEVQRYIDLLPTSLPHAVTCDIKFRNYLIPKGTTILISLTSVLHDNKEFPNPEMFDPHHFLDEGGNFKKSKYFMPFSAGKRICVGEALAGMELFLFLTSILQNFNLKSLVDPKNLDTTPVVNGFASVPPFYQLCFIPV

Row | Compound | EC50 [1] | EC50 [2] | EC50 [3] | EC50 [4] | also measured
1 | O=[N+]([O-])c1ccccc1CCc1cnc(Cl)s1 | > 195 µM (not active) | – | – | – | –
2 | CN1CCN(CC(=O)Nc2nnc(-c3cccs3)s2)CC1 | > 195 µM (not active) | – | – | – | –
3 | CCOc1ccccc1NC(=O)CSc1nnc(-c2ccco2)n1Cc1ccco1 | – | > 120 µM (not active) | > 120 µM (not active) | > 120 µM (not active) | –
4 | COc1cc(S(=O)(=O)N2CCCCCC2)c(OC)cc1Br | – | – | – | – | AC50 [5]: 1.01 µM (active)
5 | Cc1ccc(-c2ccc(=O)n(CCC(=O)NCCN3CCCCC3C)n2)cc1 (stereo not given) | > 195 µM (not active) | – | – | – | –
6 | CN1CCN(S(=O)(=O)c2cccc(C(=O)Nc3cc(C(F)(F)F)ccc3N3CCCCC3)c2)CC1 | – | – | – | – | AC50 [5]: 2.5 µM (active)
7 | CCOC(=O)Cn1c(CCC(=O)O)ccc1-c1ccc(F)cc1 | > 195 µM (not active) | – | – | – | –
8 | CCOc1ccc(C(=O)Nc2ccc3nc(N4CCN(CC)CC4)cc(C)c3c2)cc1 | – | 10.3 µM (active) | > 120 µM (not active) | > 120 µM (not active) | –
9 | Cc1ccc(N2C(=O)c3ccccc3C2Nc2ccccc2F)nc1 (stereo not given) | > 195 µM (not active) | – | – | – | –
10 | CCCCCn1c(=O)c(C(=O)Nc2ccccn2)c(O)c2ccccc21 | > 195 µM (not active) | > 120 µM (not active) | 9.51 µM (active) | 11.2 µM (active) | –
11 | CC(C)(C)C(=O)N1CCN(CCN2C(=O)c3cccc4cccc(c34)C2=O)CC1 | > 195 µM (not active) | – | – | – | –
12 | COc1ccc(S(=O)(=O)NCC2CCCN(Cc3ccc(C)o3)C2)cc1 (stereo not given) | > 195 µM (not active) | – | – | – | –
13 | Cc1onc(-c2ccccc2)c1C(=O)N1CCN(S(=O)(=O)c2ccc(Cl)cc2)CC1 | – | > 120 µM (not active) | > 120 µM (not active) | > 120 µM (not active) | –
14 | COc1ccc(-n2c(C)nnc2O)cc1OC | – | – | – | – | AC50 [6]: 1.78 µM (inconclusive)
15 | Cc1c(CCC(=O)N[C@@H](C)C(=O)O)c(=O)oc2cc3oc4c(c3cc12)CCCC4 | – | 12.7 µM (active) | 14.4 µM (active) | 17 µM (active) | –
16 | CCOC(=O)Cn1nnc2c(sc3nc4c(c(-c5ccccc5)c32)CCC4)c1=O | – | > 120 µM (not active) | > 120 µM (not active) | 3.88 µM (active) | –
17 | O=C1CN=C(c2cccs2)c2c(sc3c2CCCC3)N1 | – | – | – | – | AC50 [6]: 35.5 µM (inconclusive)
18 | CC(C)CN(C(=O)CCCSc1nc2ccccc2[nH]1)c1c(N)n(Cc2ccccc2)c(=O)[nH]c1=O | > 195 µM (not active) | – | – | – | –
19 | COc1ccc(-c2nc3cnc(N4CCNCC4)nc3n(Cc3cccs3)c2=O)cc1 | – | – | – | – | AC50 [6]: 39.8 µM (inconclusive)
20 | CCOC(=O)c1c(C)[nH]c(C(=O)Nc2ccc(NC(C)=O)cc2)c1C | – | 10.9 µM (active) | 10.9 µM (active) | 3.99 µM (active) | –
21 | CC(C)CCNc1nc(N)c([N+](=O)[O-])c(NCC2CCCO2)n1 (stereo not given) | – | 12 µM (active) | > 120 µM (not active) | > 120 µM (not active) | –
22 | CCOc1ccccc1C(=O)Nc1ccc(NC(=O)c2ccccc2)cc1 | > 195 µM (not active) | – | – | – | –
23 | COc1ccc2c(c1OC)C(=O)OC2Nc1ccc(S(=O)(=O)N=C(N)N)cc1 (stereo not given) | > 195 µM (not active) | – | – | – | –
24 | Cc1ccc(NC(=O)CN2C(=O)NC3(CCCC3)C2=O)c(Cl)c1 | > 195 µM (not active) | – | – | – | –
25 | COc1ccc(-c2oc3ccc(N4CCOCC4)cc3c2C#CCO)cc1 | – | – | – | – | AC50 [5]: 3.96 µM (active)
26 | CC(=O)N/N=C(\C)CC(=O)NC(C)(C)C | > 195 µM (not active) | – | – | – | –
27 | CCCc1[nH]nc2c1/C(=N/O)CC(c1ccccc1)C2 (stereo not given) | – | 12.8 µM (active) | 13.4 µM (active) | > 120 µM (not active) | –
28 | Cc1cccc(C(=O)N/N=C/c2ccc(OC3CSC3)cc2)c1 | – | – | – | – | AC50 [5]: 1.71 µM (active)
29 | COc1cc(/C=N/NC(=O)c2cc(C)oc2C)ccc1O | > 195 µM (not active) | – | – | – | IC50 [7]: 37.6 µM (active)
30 | C=C1/C(=C\C=C2/CCC[C@]3(C)[C@@H]([C@H](C)/C=C/[C@@H](O)C4CC4)CC[C@@H]23)C[C@@H](O)C[C@@H]1O [CALCIPOTRIENE] | – | – | – | – | AC50 [5]: 8.81 µM (active)
